This is an account of results in article PMC3648619 (Journal of inorganic biochemistry, 2013).

The target in the assay is T1, 20S proteasome, β5 subunit (chymotrypsin-like activity) (Homo sapiens, UniProt P28074).
T1 sequence (P28074 60-263): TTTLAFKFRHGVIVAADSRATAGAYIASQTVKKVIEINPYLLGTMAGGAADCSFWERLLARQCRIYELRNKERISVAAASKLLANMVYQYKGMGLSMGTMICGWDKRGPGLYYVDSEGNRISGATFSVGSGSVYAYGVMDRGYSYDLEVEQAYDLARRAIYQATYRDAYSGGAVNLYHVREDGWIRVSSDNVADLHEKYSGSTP
Type of assay: biochemical.

Usually IC50 stands for the concentration that gives 50% inhibition. Low values mean greater potency in that assay, high ones weaker potency in that assay.

As to [Cd2(C11H10O2N)4(H2O)2]·2H2O, it took 3000 nM to reach half-maximal inhibition (IC50). This lies in the single-digit micromolar range.

As for [Cd2(C12H12O2N)4(H2O)2]·2H2O [Cd1], the midpoint of inhibition, the IC50, lay at 2600 nM.

For the substance [Cd(C7H4N2O2)(C8H6O2)2]·2H2O [Cd3], the midpoint of inhibition, the IC50, lay at 3300 nM. This IC50 and that of the substance before are within 1.5-fold of each other.
